Results from PubChem BioAssay (NCI).
Values joined by “and” are separate entries in the source; they are usually repeats but may differ in a detail not shown here. Identical values can stand only once.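 Grown in 96-well plates, cells were treated for 48 hours with each compound at five concentrations. Insufficient inhibition: endpoint recorded as highest concentration tested. Abbreviation: GI50, concentration required for 50% inhibition of growth. At the TGI there is no net growth.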

Test system: SN12C renal
Assay: inhibition of tumour cell growth, NCI panel, 48 h

SMILES	TGI
CCOc1ccccc1NC(=O)C(C#N)C1=C(Cl)C(=O)c2ccccc2C1=O (stereo not drawn)	3.19 µM and 3.53 µM

Test system: U251 CNS
Assay: inhibition of tumour cell growth, NCI panel, 48 h

SMILES	GI50 [µM]	TGI
O=C(OCc1ccc2c(Cl)cc(Cl)c(O)c2n1)N1CCN(C(=O)c2cc3cc(F)ccc3[nH]2)CC1	2.55	> 100 µM
CC1=C(C(=O)Nc2ccccc2)C(c2ccc(C3C(C(=O)Nc4ccccc4)=C(C)NC(C)=C3C(=O)Nc3ccccc3)cc2)C(C(=O)Nc2ccccc2)=C(C)N1		3 µM
COc1ccc(Cc2cnc(NC(=O)c3ccc4c(c3)OCCO4)s2)cc1	0.0388	> 85.8 µM
O=C(O)C12CC3(C(=O)O)CC(C(=O)O)(CC(C(=O)O)(C1)C3=O)C2=O		> 100 µM
COCOc1ccc(C2(O)Oc3cc(OCOC)ccc3C2C)c(O)c1 (stereo not drawn)		28.2 µM
C[C@]12CC[C@@H]3c4ccc(O)c([N+](=O)[O-])c4CC[C@H]3[C@@H]1CC[C@@H]2NS(=O)(=O)c1cccc(Br)c1	1.9	4.28 µM
C[C@H]1CCC/C=C/[C@@H]2C[C@H](O)C[C@H]2[C@H](O)[C@@H](SCC(O)CO)CC(=O)O1 (stereo partly drawn)	42.3	> 100 µM
N#Cc1ccc(OC(=O)Nc2ccc(Cl)c(Cl)c2)cc1	3.04	23.2 µM
CC[C@@]1(O)C(=O)OCc2c1cc1n(c2=O)Cc2c-1nc1cc(F)c(C)c3c1c2[C@@H](N)CC3	< 0.01	> 100 µM
COc1cc(C2C(C(=O)Nc3cc(F)c(F)cc3F)=C(C)NC(C)=C2C(=O)Nc2cc(F)c(F)cc2F)ccc1O		> 100 µM
Nc1ccc2nc3n(c2c1)C(=O)c1ccccc1-3		> 100 µM
Cn1cc(-c2ccc(-c3cncc(Cl)c3N3CCC4(CCNC4=O)CC3)cc2)cn1	51.3	> 100 µM
CC/C=C/C/C=C/C/C=C/C/C=C/C/C=C/C/C=C/CCC(=O)Nc1ccn([C@@H]2O[C@H](CO)[C@@H](O)C2(F)F)c(=O)n1	0.0331	18.2 µM
O=c1nc(-c2ccccc2)cc(-c2ccccc2O)[nH]1		> 100 µM
C/C(=N\NC(=S)N1CC2CCC(CC2)C1)c1ccccn1	0.0473	1.19 µM
O=C(NCc1ccc(S(=O)(=O)c2cc(F)cc(F)c2)cc1)c1ccc2nccn2c1	6.01	> 56.7 µM
NC(=S)N/N=C/c1cc(-c2cccc(N)c2)ccn1	0.783	> 38.8 µM
C=CCn1c2c(sc1=S)C(S)N=CN2 (stereo not drawn)		> 100 µM
Cc1nn(C(=O)c2ccc(Cl)cc2)c2c1C(c1ccc(O)cc1)SC(N)=N2 (stereo not drawn)		> 10 µM
O=[N+]([O-])c1ccc(CSCc2ccc(Cl)cc2)cc1		> 100 µM
CCOc1ccccc1NC(=O)C(C#N)C1=C(Cl)C(=O)c2ccccc2C1=O (stereo not drawn)	1.95	3.14 µM and 3.82 µM

Test system: UACC-257 melanoma
Assay: inhibition of tumour cell growth, NCI panel, 48 h

SMILES	GI50 [µM]	TGI
O=C(OCc1ccc2c(Cl)cc(Cl)c(O)c2n1)N1CCN(C(=O)c2cc3cc(F)ccc3[nH]2)CC1	> 100	> 100 µM
CC1=C(C(=O)Nc2ccccc2)C(c2ccc(C3C(C(=O)Nc4ccccc4)=C(C)NC(C)=C3C(=O)Nc3ccccc3)cc2)C(C(=O)Nc2ccccc2)=C(C)N1		5.06 µM
COc1ccc(Cc2cnc(NC(=O)c3ccc4c(c3)OCCO4)s2)cc1	4.83	> 100 µM
O=C(O)C12CC3(C(=O)O)CC(C(=O)O)(CC(C(=O)O)(C1)C3=O)C2=O		> 100 µM
COCOc1ccc(C2(O)Oc3cc(OCOC)ccc3C2C)c(O)c1 (stereo not drawn)		24.5 µM
C[C@]12CC[C@@H]3c4ccc(O)c([N+](=O)[O-])c4CC[C@H]3[C@@H]1CC[C@@H]2NS(=O)(=O)c1cccc(Br)c1	2.1	5.04 µM
C[C@H]1CCC/C=C/[C@@H]2C[C@H](O)C[C@H]2[C@H](O)[C@@H](SCC(O)CO)CC(=O)O1 (stereo partly drawn)	6.74	> 100 µM
N#Cc1ccc(OC(=O)Nc2ccc(Cl)c(Cl)c2)cc1	4.07	23.9 µM
CC[C@@]1(O)C(=O)OCc2c1cc1n(c2=O)Cc2c-1nc1cc(F)c(C)c3c1c2[C@@H](N)CC3	< 0.0151	0.981 µM
COc1cc(C2C(C(=O)Nc3cc(F)c(F)cc3F)=C(C)NC(C)=C2C(=O)Nc2cc(F)c(F)cc2F)ccc1O		54.8 µM
Nc1ccc2nc3n(c2c1)C(=O)c1ccccc1-3		> 100 µM
Cn1cc(-c2ccc(-c3cncc(Cl)c3N3CCC4(CCNC4=O)CC3)cc2)cn1	> 100	> 100 µM
CC/C=C/C/C=C/C/C=C/C/C=C/C/C=C/C/C=C/CCC(=O)Nc1ccn([C@@H]2O[C@H](CO)[C@@H](O)C2(F)F)c(=O)n1	5.05	46.4 µM
O=c1nc(-c2ccccc2)cc(-c2ccccc2O)[nH]1		> 100 µM
C/C(=N\NC(=S)N1CC2CCC(CC2)C1)c1ccccn1	0.0214	0.357 µM
O=C(NCc1ccc(S(=O)(=O)c2cc(F)cc(F)c2)cc1)c1ccc2nccn2c1	> 59.1	> 100 µM
NC(=S)N/N=C/c1cc(-c2cccc(N)c2)ccn1	2.15	> 28.6 µM
C=CCn1c2c(sc1=S)C(S)N=CN2 (stereo not drawn)		> 100 µM
Cc1nn(C(=O)c2ccc(Cl)cc2)c2c1C(c1ccc(O)cc1)SC(N)=N2 (stereo not drawn)		> 10 µM
O=[N+]([O-])c1ccc(CSCc2ccc(Cl)cc2)cc1		> 100 µM
CCOc1ccccc1NC(=O)C(C#N)C1=C(Cl)C(=O)c2ccccc2C1=O (stereo not drawn)	2.22	2.25 µM and 6.7 µM

Test system: COLO 205 colon
Assay: inhibition of tumour cell growth, NCI panel, 48 h

SMILES	GI50 [µM]	TGI
O=C(OCc1ccc2c(Cl)cc(Cl)c(O)c2n1)N1CCN(C(=O)c2cc3cc(F)ccc3[nH]2)CC1	38.7	> 100 µM
CC1=C(C(=O)Nc2ccccc2)C(c2ccc(C3C(C(=O)Nc4ccccc4)=C(C)NC(C)=C3C(=O)Nc3ccccc3)cc2)C(C(=O)Nc2ccccc2)=C(C)N1		10.6 µM
COc1ccc(Cc2cnc(NC(=O)c3ccc4c(c3)OCCO4)s2)cc1	0.0289	0.319 µM
O=C(O)C12CC3(C(=O)O)CC(C(=O)O)(CC(C(=O)O)(C1)C3=O)C2=O		> 100 µM
COCOc1ccc(C2(O)Oc3cc(OCOC)ccc3C2C)c(O)c1 (stereo not drawn)		32.2 µM
C[C@]12CC[C@@H]3c4ccc(O)c([N+](=O)[O-])c4CC[C@H]3[C@@H]1CC[C@@H]2NS(=O)(=O)c1cccc(Br)c1	2.78	7.26 µM
C[C@H]1CCC/C=C/[C@@H]2C[C@H](O)C[C@H]2[C@H](O)[C@@H](SCC(O)CO)CC(=O)O1 (stereo partly drawn)	17.5	34.4 µM
N#Cc1ccc(OC(=O)Nc2ccc(Cl)c(Cl)c2)cc1	3.79	11.4 µM
CC[C@@]1(O)C(=O)OCc2c1cc1n(c2=O)Cc2c-1nc1cc(F)c(C)c3c1c2[C@@H](N)CC3	0.0265	0.837 µM
COc1cc(C2C(C(=O)Nc3cc(F)c(F)cc3F)=C(C)NC(C)=C2C(=O)Nc2cc(F)c(F)cc2F)ccc1O		> 100 µM
Nc1ccc2nc3n(c2c1)C(=O)c1ccccc1-3		> 100 µM
Cn1cc(-c2ccc(-c3cncc(Cl)c3N3CCC4(CCNC4=O)CC3)cc2)cn1	10.6	> 100 µM
CC/C=C/C/C=C/C/C=C/C/C=C/C/C=C/C/C=C/CCC(=O)Nc1ccn([C@@H]2O[C@H](CO)[C@@H](O)C2(F)F)c(=O)n1	0.187	19.1 µM
O=c1nc(-c2ccccc2)cc(-c2ccccc2O)[nH]1		> 100 µM
C/C(=N\NC(=S)N1CC2CCC(CC2)C1)c1ccccn1	0.0146	0.0719 µM
O=C(NCc1ccc(S(=O)(=O)c2cc(F)cc(F)c2)cc1)c1ccc2nccn2c1		> 100 µM
NC(=S)N/N=C/c1cc(-c2cccc(N)c2)ccn1	3.41	> 100 µM
C=CCn1c2c(sc1=S)C(S)N=CN2 (stereo not drawn)		> 100 µM
Cc1nn(C(=O)c2ccc(Cl)cc2)c2c1C(c1ccc(O)cc1)SC(N)=N2 (stereo not drawn)		> 10 µM
O=[N+]([O-])c1ccc(CSCc2ccc(Cl)cc2)cc1		> 100 µM
CCOc1ccccc1NC(=O)C(C#N)C1=C(Cl)C(=O)c2ccccc2C1=O (stereo not drawn)	12.6	3.43 µM and 27.9 µM

Test system: K-562 leukemia
Assay: inhibition of tumour cell growth, NCI panel, 48 h

SMILES	GI50 [µM]	TGI [µM]
O=C(OCc1ccc2c(Cl)cc(Cl)c(O)c2n1)N1CCN(C(=O)c2cc3cc(F)ccc3[nH]2)CC1	0.825	> 100
CC1=C(C(=O)Nc2ccccc2)C(c2ccc(C3C(C(=O)Nc4ccccc4)=C(C)NC(C)=C3C(=O)Nc3ccccc3)cc2)C(C(=O)Nc2ccccc2)=C(C)N1		> 53
COc1ccc(Cc2cnc(NC(=O)c3ccc4c(c3)OCCO4)s2)cc1	0.0157	> 100
O=C(O)C12CC3(C(=O)O)CC(C(=O)O)(CC(C(=O)O)(C1)C3=O)C2=O		> 100
COCOc1ccc(C2(O)Oc3cc(OCOC)ccc3C2C)c(O)c1 (stereo not drawn)		44.7
C[C@]12CC[C@@H]3c4ccc(O)c([N+](=O)[O-])c4CC[C@H]3[C@@H]1CC[C@@H]2NS(=O)(=O)c1cccc(Br)c1	3.1	10.7
C[C@H]1CCC/C=C/[C@@H]2C[C@H](O)C[C@H]2[C@H](O)[C@@H](SCC(O)CO)CC(=O)O1 (stereo partly drawn)	40.3	> 100
N#Cc1ccc(OC(=O)Nc2ccc(Cl)c(Cl)c2)cc1	3.4	> 100
CC[C@@]1(O)C(=O)OCc2c1cc1n(c2=O)Cc2c-1nc1cc(F)c(C)c3c1c2[C@@H](N)CC3	< 0.0117	> 100
COc1cc(C2C(C(=O)Nc3cc(F)c(F)cc3F)=C(C)NC(C)=C2C(=O)Nc2cc(F)c(F)cc2F)ccc1O		49.6
Nc1ccc2nc3n(c2c1)C(=O)c1ccccc1-3		> 100
Cn1cc(-c2ccc(-c3cncc(Cl)c3N3CCC4(CCNC4=O)CC3)cc2)cn1	26.9	> 100
CC/C=C/C/C=C/C/C=C/C/C=C/C/C=C/C/C=C/CCC(=O)Nc1ccn([C@@H]2O[C@H](CO)[C@@H](O)C2(F)F)c(=O)n1	0.16	33.4
O=c1nc(-c2ccccc2)cc(-c2ccccc2O)[nH]1		> 100
C/C(=N\NC(=S)N1CC2CCC(CC2)C1)c1ccccn1	< 0.0108	2.21
O=C(NCc1ccc(S(=O)(=O)c2cc(F)cc(F)c2)cc1)c1ccc2nccn2c1	0.0103	> 100
NC(=S)N/N=C/c1cc(-c2cccc(N)c2)ccn1	0.541	> 100
C=CCn1c2c(sc1=S)C(S)N=CN2 (stereo not drawn)		> 100
Cc1nn(C(=O)c2ccc(Cl)cc2)c2c1C(c1ccc(O)cc1)SC(N)=N2 (stereo not drawn)		> 10
O=[N+]([O-])c1ccc(CSCc2ccc(Cl)cc2)cc1		> 100
CCOc1ccccc1NC(=O)C(C#N)C1=C(Cl)C(=O)c2ccccc2C1=O (stereo not drawn)	2.93	

Test system: IGROV1 ovarian
Assay: inhibition of tumour cell growth, NCI panel, 48 h

SMILES	GI50 [µM]	TGI [µM]
O=C(OCc1ccc2c(Cl)cc(Cl)c(O)c2n1)N1CCN(C(=O)c2cc3cc(F)ccc3[nH]2)CC1	1.99	> 100
CC1=C(C(=O)Nc2ccccc2)C(c2ccc(C3C(C(=O)Nc4ccccc4)=C(C)NC(C)=C3C(=O)Nc3ccccc3)cc2)C(C(=O)Nc2ccccc2)=C(C)N1		6.94
COc1ccc(Cc2cnc(NC(=O)c3ccc4c(c3)OCCO4)s2)cc1	0.0485	> 55.2
O=C(O)C12CC3(C(=O)O)CC(C(=O)O)(CC(C(=O)O)(C1)C3=O)C2=O		> 100
COCOc1ccc(C2(O)Oc3cc(OCOC)ccc3C2C)c(O)c1 (stereo not drawn)		31.6
C[C@]12CC[C@@H]3c4ccc(O)c([N+](=O)[O-])c4CC[C@H]3[C@@H]1CC[C@@H]2NS(=O)(=O)c1cccc(Br)c1	3.22	9.35
C[C@H]1CCC/C=C/[C@@H]2C[C@H](O)C[C@H]2[C@H](O)[C@@H](SCC(O)CO)CC(=O)O1 (stereo partly drawn)	37.2	> 100
N#Cc1ccc(OC(=O)Nc2ccc(Cl)c(Cl)c2)cc1	4.04	> 100
CC[C@@]1(O)C(=O)OCc2c1cc1n(c2=O)Cc2c-1nc1cc(F)c(C)c3c1c2[C@@H](N)CC3	0.0162	1.59
COc1cc(C2C(C(=O)Nc3cc(F)c(F)cc3F)=C(C)NC(C)=C2C(=O)Nc2cc(F)c(F)cc2F)ccc1O		> 100
Nc1ccc2nc3n(c2c1)C(=O)c1ccccc1-3		> 100
Cn1cc(-c2ccc(-c3cncc(Cl)c3N3CCC4(CCNC4=O)CC3)cc2)cn1	68	> 100
CC/C=C/C/C=C/C/C=C/C/C=C/C/C=C/C/C=C/CCC(=O)Nc1ccn([C@@H]2O[C@H](CO)[C@@H](O)C2(F)F)c(=O)n1	4.07	30.7
O=c1nc(-c2ccccc2)cc(-c2ccccc2O)[nH]1		> 100
C/C(=N\NC(=S)N1CC2CCC(CC2)C1)c1ccccn1	< 0.01	2.29
O=C(NCc1ccc(S(=O)(=O)c2cc(F)cc(F)c2)cc1)c1ccc2nccn2c1	12.1	> 80.4
NC(=S)N/N=C/c1cc(-c2cccc(N)c2)ccn1	3.05	> 24.5
C=CCn1c2c(sc1=S)C(S)N=CN2 (stereo not drawn)		> 100
Cc1nn(C(=O)c2ccc(Cl)cc2)c2c1C(c1ccc(O)cc1)SC(N)=N2 (stereo not drawn)		> 10
O=[N+]([O-])c1ccc(CSCc2ccc(Cl)cc2)cc1		> 100
CCOc1ccccc1NC(=O)C(C#N)C1=C(Cl)C(=O)c2ccccc2C1=O (stereo not drawn)		5.31
